From patent publication US7109243B2 (IRM LLC, priority 2003, dated 2006)

How the values were obtained:
[1] = target: Cathepsin S (Homo sapiens, UniProt P25774); assay: Cathepsin S inhibition assay (fluorogenic peptide substrate); type: biochemical; conditions: Table II, compounds of Formula I; read-out: Ki Cat. S
How it was run: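 Ki values come from nonlinear fitting of inhibited hydrolysis rates, taking free and total inhibitor concentrations as equal. Rates measured as rising fluorescence at 380/450 nm after reaction start with 50 μM final acetyl-HPVK-aminocarbamoylcoumarin.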

[2] = target: T1, Cathepsin K (Homo sapiens, UniProt P43235); assay: Cathepsin K inhibition assay (fluorogenic peptide substrate); selectivity ratio vs cathepsin S; type: biochemical; conditions: ratio of cathepsin K inhibition constant to cathepsin S inhibition constant; Table II
T1 sequence (P43235 115-329): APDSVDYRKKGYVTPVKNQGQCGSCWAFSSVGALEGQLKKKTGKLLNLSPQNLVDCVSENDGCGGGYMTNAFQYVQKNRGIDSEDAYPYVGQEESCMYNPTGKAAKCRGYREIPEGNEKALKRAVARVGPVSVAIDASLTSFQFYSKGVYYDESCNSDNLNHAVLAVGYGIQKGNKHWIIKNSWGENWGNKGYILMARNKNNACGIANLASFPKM
How it was run: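 Fluorogenic kinetic assay, started with acetyl-Lys-His-Pro-Lys-aminocarbamoylcoumarin at 40 μM final, hydrolysis followed at ex 380/em 450 nm. Apparent inhibition constants from progress curves, converted to competitive inhibition constants. Selectivity expressed as isozyme inhibition constant divided by cathepsin S inhibition constant.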

Chain of Cathepsin S (P25774 115-331, species assumed): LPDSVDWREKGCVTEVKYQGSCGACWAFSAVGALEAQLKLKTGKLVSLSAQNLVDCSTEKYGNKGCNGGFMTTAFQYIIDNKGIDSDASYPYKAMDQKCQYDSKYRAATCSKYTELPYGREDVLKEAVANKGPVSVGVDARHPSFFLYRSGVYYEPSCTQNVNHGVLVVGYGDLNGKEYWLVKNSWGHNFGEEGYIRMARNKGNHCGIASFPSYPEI

Ki [1] [nM] | Selectivity for Cat. S over Cat. K [2] | SMILES
< 1000 | ++ (++, >100) | COc1ccc(NCCNC(=O)[C@H](Cc2ccc(Oc3cccc(Cl)c3)cc2)NC(=O)c2cccc(C)c2)cc1 [Compound 329, (S)-N-{2-[4-(3-Chloro-phenoxy)-phenyl]-1-[2-(4-methoxy-phenylamino)-ethylcarbamoyl]-ethyl}-3-methyl-benzamide]
< 10000 | + (+, >10) | COc1ccc(NCCNC(=O)[C@H](CCC2CCCCC2)NC(=O)c2ccc(OCc3ccccc3)cc2)cc1 [Compound 129, (S)-4-Benzyloxy-N-{3-cyclohexyl-1-[2-(4-methoxy-phenylamino)-ethylcarbamoyl]-propyl}-benzamide]
< 1000 | ++ (++, >100) | COc1ccc(NCCNC(=O)[C@@H](NC(=O)c2cccc(C)c2)C(C)OCc2ccccc2)cc1 (stereo partly drawn) [Compound 259, (S)-N-{2-Benzyloxy-1-[2-(4-methoxy-phenylamino)-ethylcarbamoyl]-propyl}-3-methyl-benzamide]
< 1000 | +++ (+++, >1000) | COc1ccc(NCCNC(=O)C(NC(=O)c2cccc(C)c2)c2ccccc2Cl)cc1 (stereo not shown) [Compound 216, N-{(2-Chloro-phenyl)-[2-(4-methoxy-phenylamino)-ethylcarbamoyl]-methyl}-3-methyl-benzamide]
< 100 | +++ (+++, >1000) | COc1ccc(NCCNC(=O)[C@H](Cc2ccc(Cl)c(Cl)c2)NC(=O)c2cccc(C)c2)cc1 [Compound 231, (S)-N-{2-(3,4-Dichloro-phenyl)-1-[2-(4-methoxy-phenylamino)-ethylcarbamoyl]-ethyl}-3-methyl-benzamide]
< 100 | + (+, >10) | COc1ccc(NCCNC(=O)[C@H](Cc2ccccc2)NC(=O)c2cc(C)c(C)cc2C)cc1 [Compound 30, (S)-N-{1-[2-(4-Methoxy-phenylamino)-ethylcarbamoyl]-2-phenyl-ethyl}-2,4,5-trimethyl-benzamide]
< 100 | + (+, >10) | O=C(N[C@@H](CC1CCCCC1)C(=O)NCCNc1ccc(OC(F)(F)F)cc1)C1CN(Cc2ccccc2)CCO1 (stereo partly drawn) [Compound 32, 4-Benzyl-morpholine-2-carboxylic acid (S)-{2-cyclohexyl-1-[2-(4-trifluoromethoxy-phenylamino)-ethylcarbamoyl]-ethyl}-amide]
< 100 | + (+, >10) | Cc1cc(C)nc(Nc2ccc(C(=O)N[C@@H](CC3CCCCC3)C(=O)NCCNc3ccc(OC(F)(F)F)cc3)cc2)n1 [Compound 92, N-(S)-{2-cyclohexyl-1-[2-(4-trifluoromethoxy-phenylamino)-ethylcarbamoyl]-ethyl}-4-(4,6-dimethyl-pyrimidin-2-ylamino)-benzamide]
< 100 | +++ (+++, >1000) | COc1ccc(NCCNC(=O)C(NC(=O)c2cccc(C)c2)c2ccccc2OCc2ccccc2)cc1 (stereo not shown) [Compound 214, N-{(2-Benzyloxy-phenyl)-[2-(4-methoxy-phenylamino)-ethylcarbamoyl]-methyl}-3-methyl-benzamide]
< 1000 | + (+, >10) | CC(C)Oc1ccc(C(=O)N[C@@H](CC2CCCCC2)C(=O)NCCNc2ccc(OC(F)(F)F)cc2)cc1 [Compound 61, N-(S)-{2-cyclohexyl-1-[2-(4-trifluoromethoxy-phenylamino)-ethylcarbamoyl]-ethyl}-4-isopropoxy-benzamide]
< 100 | +++ (+++, >1000) | COc1ccc(NCCNC(=O)[C@H](Cc2ccc(-c3cccnc3)cc2)NC(=O)c2cccc(C)c2)cc1 [Compound 274, (S)-N-[1-[2-(4-Methoxy-phenylamino)-ethylcarbamoyl]-2-(4-pyridin-3-yl-phenyl)-ethyl]-3-methyl-benzamide]
< 100 | ++ (++, >100) | O=C(N[C@@H](CC1CCCCC1)C(=O)NCCNc1ccc(F)cc1)c1ccc(-c2ccc(F)cc2)o1 [Compound 322, 5-(4-Fluoro-phenyl)-furan-2-carboxylic acid (S)-{2-cyclohexyl-1-[2-(4-fluoro-phenylamino)-ethylcarbamoyl]-ethyl}-amide]
< 100 | ++ (++, >100) | COc1ccc(NCCNC(=O)[C@H](CC2CCCCC2)NC(=O)c2cc(C(F)(F)F)ccc2F)cc1 [Compound 154, (S)-N-{2-Cyclohexyl-1-[2-(4-methoxy-phenylamino)-ethylcarbamoyl]-ethyl}-2-fluoro-5-trifluoromethyl-benzamide]
< 1000 | ++ (++, >100) | COc1ccc(NCCNC(=O)C(NC(=O)c2cccc(C)c2)c2ccccc2C)cc1 (stereo not shown) [Compound 220, N-{[2-(4-Methoxy-phenylamino)-ethylcarbamoyl]-o-tolyl-methyl}-3-methyl-benzamide]
< 100 | ++ (++, >100) | O=C(N[C@@H](CC1CCCCC1)C(=O)NCCNc1ccc(OC(F)(F)F)cc1)c1ccc(-c2cccc(F)c2)s1 [Compound 36, 5-(3-Fluoro-phenyl)-thiophene-2-carboxylic acid (S)-{2-cyclohexyl-1-[2-(4-trifluoromethoxy-phenylamino)-ethylcarbamoyl]-ethyl}-amide]
< 100 | +++ (+++, >1000) | Cc1cccc(-c2ccc(C(=O)N[C@@H](CC3CCCCC3)C(=O)NCCNc3ccc(OC(F)(F)F)cc3)s2)c1 [Compound 47, 5-m-Tolyl-thiophene-2-carboxylic acid (S)-{2-cyclohexyl-1-[2-(4-trifluoromethoxy-phenylamino)-ethylcarbamoyl]-ethyl}-amide]
< 100 | ++ (++, >100) | CC(C(=O)NC(CC1CCCCC1)C(=O)NCCNc1ccc(F)cc1)c1ccc(F)cc1 (mixture of isomers) [Compound 320, N-(S)-{2-cyclohexyl-1-[2-(4-fluoro-phenylamino)-ethylcarbamoyl]-ethyl}-2-(R,S)-(4-fluoro-phenyl)-propionamide]
< 1000 | ++ (++, >100) | Cc1cc2ncc(C(=O)N[C@@H](CC3CCCCC3)C(=O)NCCNc3ccc(OC(F)(F)F)cc3)c(C)n2n1 [Compound 48, 2,7-Dimethyl-pyrazolo[1,5-a]pyrimidine-6-carboxylic acid (S)-{2-cyclohexyl-1-[2-(4-trifluoromethoxy-phenylamino)-ethylcarbamoyl]-ethyl}-amide]
< 100 | +++ (+++, >1000) | COc1ccc(NCCNC(=O)[C@H](CC2CCCCC2)NC(=O)c2ccc(-c3ccc4c(c3)OCO4)cc2)cc1 [Compound 176, (S)-4-Benzo[1,3]dioxol-5-yl-N-{2-cyclohexyl-1-[2-(4phenylamino)-ethylcarbamoyl]-ethyl}-benzamide]
< 1000 | ++ (++, >100) | COc1ccc(NCCNC(=O)[C@H](Cc2ccc(-c3ccccc3C(C)=O)cc2)NC(=O)c2cccc(C)c2)cc1 [Compound 288, (S)-N-{2-(2′-Acetyl-biphenyl-4-yl)-1-[2-(4-methoxy-phenylamino)-ethylcarbamoyl]-ethyl}-3-methyl-benzamide]
< 1000 | ++ (++, >100) | COc1ccc(NCCNC(=O)C(NC(=O)c2cccc(C)c2)C(C)c2ccccc2)cc1 (stereo not drawn) [Compound 268, threo-N-{1-[2-(4-Methoxy-phenylamino)-ethylcarbamoyl]-2-phenyl-propyl}-3-methyl-benzamide]
< 100 | + (+, >10) | O=C(N[C@@H](CC1CCCCC1)C(=O)NCCNc1ccc(OC(F)(F)F)cc1)c1csc(-c2ccccc2)n1 [Compound 54, 2-Phenyl-thiazole-4-carboxylic acid (S)-{2-cyclohexyl-1-[2-(4-trifluoromethoxy-phenylamino)-ethylcarbamoyl]-ethyl}-amide]
< 100 | +++ (+++, >1000) | Cc1cccc(-c2ccc(C(=O)N[C@@H](CC3CCCCC3)C(=O)NCCNc3ccc(OC(F)(F)F)cc3)o2)c1 [Compound 51, 5-m-Tolyl-furan-2-carboxylic acid (S)-{2-cyclohexyl-1-[2-(4-trifluoromethoxy-phenylamino)-ethylcarbamoyl]-ethyl}-amide]
< 100 | +++ (+++, >1000) | O=C(Cc1ccccc1F)N[C@@H](CC1CCCCC1)C(=O)NCCNc1ccc(F)cc1 [Compound 306, 3-Cyclohexyl-2-(S)-[2-(2-fluoro-phenyl)-acetylamino]-N-[2-(4-fluoro-phenylamino)-ethyl]-propionamide]
< 100 | +++ (+++, >1000) | COc1ccc(NCCNC(=O)[C@H](Cc2ccc(-c3ccc(OC)nc3)cc2)NC(=O)c2cccc(C)c2)cc1 [Compound 292, (S)-N-{1-[2-(4-Methoxy-phenylamino)-ethylcarbamoyl]-2-[4-(6-methoxy-pyridin-3-yl)-phenyl]-ethyl}-3-methyl-benzamide]
< 100 | + (+, >10) | O=C(N[C@@H](CC1CCCCC1)C(=O)NCCNc1ccc(OC(F)(F)F)cc1)c1ccc(-c2cnco2)cc1 [Compound 67, N-(S)-{2-cyclohexyl-1-[2-(4-trifluoromethoxy-phenylamino)-ethylcarbamoyl]-ethyl}-4-oxazol-5-yl-benzamide]
